Some test systems named below: SK-MEL-2 melanoma; KM12 colon; NCI/ADR-RES ovarian; DMS 114 small cell lung; UACC-257 melanoma; M19-MEL melanoma; KM20L2 colon; HOP-18 NSCLC; HOP-92 NSCLC; DMS 273 small cell lung.
Common to all, as to test: NCI anticancer screen, dose series, 48 h

Values joined by “and” are separate entries in the source; they are usually repeats but may differ in a detail not shown here. Equal entries are not always repeated.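 Values below derive from 48-hour exposures of cells grown in 96-well plates, with endpoints linearly interpolated between the two concentrations bracketing the appropriate inhibition level. At the GI50, growth is halved. At the TGI there is no net growth.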

For `CC(=O)c1cccc(NC2C(N)C(NC(=O)N(C)C)(C(C)O)C(C)(O)C2(O)COC(=O)c2c(C)cccc2O)c1` (configuration not stated), the TGI was 0.0186 µM with SK-MEL-2 melanoma; 0.213 µM and 0.164 µM with KM12 colon; 0.591 µM with NCI/ADR-RES ovarian; 0.0855 µM with DMS 114 small cell lung; 0.203 µM in the assay with M19-MEL melanoma; 0.372 µM in the assay with KM20L2 colon. Moreover, the GI50 in the assay with UACC-257 melanoma was 0.0314 µM.

In the case of `O=C1c2cc(CCl)sc2C(=O)c2ccsc21`, the TGI was found to be 0.797 µM with HOP-18 NSCLC; 0.42 µM in the assay on SK-MEL-2 melanoma; 3.03 µM in the assay with KM12 colon; 1.47 µM with HOP-92 NSCLC; 0.468 µM with NCI/ADR-RES ovarian; 0.298 µM with DMS 114 small cell lung. In addition, the values for the TGI in the assay on DMS 273 small cell lung, in the assay with UACC-257 melanoma and with KM20L2 colon were 1.12 µM, 0.327 µM and 2.84 µM, respectively.

As to `CCN(CC)CCNc1ccc(C)c2sc3ccc(O)cc3c(=O)c12`, the TGI in the assay on HOP-18 NSCLC worked out at 5.94 µM; with SK-MEL-2 melanoma it was 3.24 µM; in the assay with KM12 colon, 3.39 µM; in the assay on HOP-92 NSCLC, 7.17 µM; in the assay on DMS 114 small cell lung, 2.27 µM; with DMS 273 small cell lung, 1.91 µM. In addition, the TGI turned out to be 2.99 µM in the assay with UACC-257 melanoma, 2.36 µM in the assay on M19-MEL melanoma and 5.46 µM in the assay with KM20L2 colon.

For the compound `COc1ccc2c(c1)c1cc(OC)ccc1n2CCCCOc1ccc(-c2c3ccccc3c(-c3ccc(OCCCCn4c5ccc(OC)cc5c5cc(OC)ccc54)cc3)c3ccccc23)cc1`, the TGI with SK-MEL-2 melanoma, in the assay with KM12 colon, in the assay with HOP-92 NSCLC, with DMS 114 small cell lung, in the assay with DMS 273 small cell lung and in the assay with M19-MEL melanoma was over 100 µM in each case. The TGI with KM20L2 colon was over 100 µM.

For the compound `C/C(=N\Nc1ccc([N+](=O)[O-])cc1)C(=O)N(C)Nc1ccccc1`, the TGI in the assay on HOP-18 NSCLC is over 100 µM; in the assay on SK-MEL-2 melanoma, over 100 µM; with KM12 colon it was 64.6 µM; in the assay on HOP-92 NSCLC, over 100 µM; with DMS 114 small cell lung it was over 100 µM; in the assay on DMS 273 small cell lung it was over 100 µM. For the same compound, the TGI in the assay on UACC-257 melanoma, in the assay with M19-MEL melanoma and with KM20L2 colon was over 100 µM each time.

As for `C=C(Cl)C(Cl)(CBr)CCC(Cl)C(C)(C)Cl` (configuration not stated), the TGI with SK-MEL-2 melanoma stood at 1.84 µM; with KM12 colon, 1.94 µM; in the assay with HOP-92 NSCLC it was 2.52 µM; in the assay with NCI/ADR-RES ovarian, 11.8 µM; in the assay with UACC-257 melanoma it was 3.79 µM.

`CCOC(=O)c1nc2cc(C(F)(F)F)ccc2nc1Nc1ccc(Cl)c(Cl)c1`: the TGI in the assay on SK-MEL-2 melanoma was over 100 µM; with KM12 colon, over 100 µM; in the assay with HOP-92 NSCLC it was 94.1 µM; with NCI/ADR-RES ovarian, over 100 µM; with UACC-257 melanoma, over 100 µM.

With `Cc1ccc(/C=N/Nc2ncccn2)s1`, the TGI in the assay with SK-MEL-2 melanoma, with KM12 colon, with HOP-92 NSCLC, with NCI/ADR-RES ovarian and with UACC-257 melanoma was over 100 µM each time.

With `Cc1cccc2c1C(=O)C(C1OC(=O)c3ccccc31)C2` (configuration not stated), the TGI in the assay with SK-MEL-2 melanoma, in the assay with KM12 colon, in the assay on HOP-92 NSCLC, with NCI/ADR-RES ovarian and in the assay on UACC-257 melanoma was over 100 µM in each case.

With `Cc1ccc(C2=Nc3c(N)nc(N)nc3NC(c3ccccc3)C2)cc1` (configuration not stated), the GI50 with SK-MEL-2 melanoma was 9.71 µM and 4.19 µM; in the assay on KM12 colon, 3.97 µM and 18 µM. For the same compound, the TGI was 22 µM and 17.9 µM in the assay on SK-MEL-2 melanoma; 13.8 µM and 33.7 µM with KM12 colon; 24.3 µM and 24.9 µM in the assay with HOP-92 NSCLC; 16.1 µM and 18.2 µM in the assay with NCI/ADR-RES ovarian; 24.6 µM and 32.4 µM in the assay with UACC-257 melanoma.

In the case of `Cc1n[nH]c(=O)n1N=C(c1ccccc1)c1ccccc1`, the TGI in the assay on SK-MEL-2 melanoma, in the assay with KM12 colon, with HOP-92 NSCLC, in the assay with NCI/ADR-RES ovarian and with UACC-257 melanoma was over 100 µM in each case.

As for `CC(=O)OC[C@@]12C[C@H]3C(=O)C(C)(C)C[C@H]3[C@]1(C)[C@@H](OC(C)=O)[C@]1(O)[C@H]([C@@H](OC(=O)c3ccccc3)[C@@H](C)[C@H]1OC(C)=O)[C@H]2OC(C)=O`, the TGI in the assay with SK-MEL-2 melanoma, in the assay with KM12 colon, with HOP-92 NSCLC, in the assay on NCI/ADR-RES ovarian and in the assay with UACC-257 melanoma was over 20 µM throughout.

`O=C1OC(CN2CCN(c3ccccc3)CC2)CN1C(=S)Nc1ccccc1` (configuration not stated): the TGI in the assay with SK-MEL-2 melanoma, in the assay with KM12 colon, with HOP-92 NSCLC, with NCI/ADR-RES ovarian and in the assay with UACC-257 melanoma was over 100 µM throughout.

Take `CCN(CC)CCCNC(=O)Cc1ccccc1Nc1c(Cl)cccc1Cl`: the TGI was found to be 39.3 µM in the assay with KM12 colon; 27.6 µM with DMS 114 small cell lung; 28.1 µM in the assay with DMS 273 small cell lung; 13.2 µM in the assay on UACC-257 melanoma; 17.4 µM with M19-MEL melanoma; 12.4 µM with KM20L2 colon.

Take `CC(C)(C)/C(O)=C\c1nc2cc(C(F)(F)F)ccc2[nH]c1=O`: the TGI in the assay on SK-MEL-2 melanoma, in the assay with KM12 colon, in the assay on HOP-92 NSCLC, in the assay with NCI/ADR-RES ovarian and in the assay with UACC-257 melanoma was over 100 µM throughout.

As for `CC(C)(C)C=C=C(C(C)(C)C)P(=O)(O)O`, the TGI in the assay with SK-MEL-2 melanoma, with KM12 colon, in the assay on HOP-92 NSCLC, in the assay with NCI/ADR-RES ovarian and with UACC-257 melanoma was over 100 µM in each case.

As to `CSCCC(NC(c1ccccc1)c1ccccc1)[P+](=O)O` (configuration not stated), the TGI in the assay on SK-MEL-2 melanoma, in the assay on KM12 colon, with HOP-92 NSCLC, in the assay with NCI/ADR-RES ovarian and in the assay on UACC-257 melanoma was over 100 µM each time.

Take `COC(=O)C1=C(O)C(C(=O)OC)[C@]2(O)[C@H](C(=O)OC)[C@H]1C[C@@H](c1ccc(OC)cc1)[C@H]2C(=O)OC` (some centres not stated): the TGI was 56.3 µM in the assay with SK-MEL-2 melanoma; 41.3 µM with KM12 colon; over 100 µM with HOP-92 NSCLC; over 100 µM in the assay on NCI/ADR-RES ovarian; over 100 µM with UACC-257 melanoma.

`CC(C)[Si]1(C(C)C)OCC2OC(n3ccc(=O)[nH]c3=O)C(O)(CO)C2O[Si](C(C)C)(C(C)C)O1` (configuration not stated): the TGI came out at 31 µM in the assay on SK-MEL-2 melanoma; 31 µM in the assay with KM12 colon; 22.6 µM with HOP-92 NSCLC; 30.1 µM with NCI/ADR-RES ovarian; 28.7 µM with UACC-257 melanoma.

Take `COc1cc(CC2c3cc(OC)c(OC)cc3CCN2C)c(Oc2cc3c(cc2OC)-c2c(OC)c(OC)c(OC)c4c2C(C3)N(C)CC4)cc1OC` (configuration not stated): the TGI with HOP-18 NSCLC was 31.1 µM; in the assay with SK-MEL-2 melanoma it was 28.8 µM; in the assay with KM12 colon it was 29.3 µM; in the assay on HOP-92 NSCLC, 20.9 µM; in the assay on DMS 114 small cell lung, 26 µM; in the assay on DMS 273 small cell lung, 26.2 µM. Moreover, the TGI in the assay on UACC-257 melanoma amounted to 13.6 µM; in the assay with M19-MEL melanoma it was 28.6 µM; in the assay with KM20L2 colon, 17.8 µM.

Consider `CCN1/C(=C/C(C)=C/c2sc3ccccc3[n+]2CC)Sc2ccccc21`, for which the TGI turned out to be 1.1 µM in the assay with SK-MEL-2 melanoma; 1.21 µM with KM12 colon; 0.338 µM in the assay on HOP-92 NSCLC; 2.16 µM in the assay on M19-MEL melanoma; 2.03 µM with KM20L2 colon.

Turning to `CCCc1c2c3ccccc3nc-2nc2ccccn12`, the TGI in the assay on SK-MEL-2 melanoma, with KM12 colon, with HOP-92 NSCLC, in the assay on NCI/ADR-RES ovarian and in the assay with UACC-257 melanoma was over 100 µM throughout.

On to `CN(/N=C\c1ccc2ccccc2c1)C1=NCCCCN1`, for which the TGI in the assay with SK-MEL-2 melanoma is 45.4 µM; in the assay on KM12 colon, 52.1 µM; in the assay on HOP-92 NSCLC, 7.4 µM; in the assay on NCI/ADR-RES ovarian, over 100 µM; in the assay with UACC-257 melanoma, 33.7 µM.

With `O=C(C1OC1c1ccc([N+](=O)[O-])cc1)C12CC3CC(CC(C3)C1)C2` (configuration not stated), the TGI in the assay with SK-MEL-2 melanoma was determined as 39.1 µM; in the assay with KM12 colon, 30.1 µM; in the assay on HOP-92 NSCLC it was 40.3 µM; in the assay with NCI/ADR-RES ovarian it was 39.2 µM; with UACC-257 melanoma, 30.9 µM.

For `CNC(=O)CN1CC(=O)N(C)C(=O)C1`, the TGI in the assay on SK-MEL-2 melanoma, in the assay with KM12 colon, in the assay on HOP-92 NSCLC, in the assay on DMS 273 small cell lung, in the assay with M19-MEL melanoma and in the assay with KM20L2 colon was over 100 µM each time.

On to `C=C1C(=O)OC2/C=C(\C)C(O)/C=C\C(C)(O)CC(OC(=O)/C(C)=C/C)C12` (configuration not stated), for which the TGI in the assay with HOP-18 NSCLC was over 100 µM; in the assay on SK-MEL-2 melanoma, 48.8 µM; in the assay on KM12 colon, over 100 µM; in the assay with HOP-92 NSCLC, 77.5 µM; with DMS 114 small cell lung it was over 78.2 µM; in the assay on DMS 273 small cell lung, 37.3 µM. The TGI is over 77.1 µM with UACC-257 melanoma, 37 µM in the assay with M19-MEL melanoma and over 38.5 µM in the assay with KM20L2 colon.

For the compound `Cc1nc2c(-c3ccccc3)[nH]c(C)c2c(=O)o1`, the TGI in the assay on SK-MEL-2 melanoma, with KM12 colon, in the assay on HOP-92 NSCLC, in the assay with NCI/ADR-RES ovarian and in the assay with UACC-257 melanoma was over 100 µM throughout.

For `NC(CCCCNc1ccn(C2OC(CO)C(O)C2O)c(=O)n1)C(=O)O` (configuration not stated), the TGI in the assay on SK-MEL-2 melanoma, in the assay on KM12 colon, in the assay with HOP-92 NSCLC, in the assay with NCI/ADR-RES ovarian and in the assay on UACC-257 melanoma was over 100 µM in each case.

Turning to `CC(=O)Nc1ccc(-c2nnc(SCC(=O)Nc3ccc(C)cc3)o2)cc1`, the TGI in the assay with HOP-18 NSCLC is 31.3 µM; in the assay on SK-MEL-2 melanoma, 34.4 µM; with KM12 colon, 37.8 µM; in the assay on HOP-92 NSCLC it was 33.4 µM; in the assay on DMS 114 small cell lung, 28.2 µM; in the assay on DMS 273 small cell lung, 30.1 µM. The values for the TGI in the assay with UACC-257 melanoma, in the assay on M19-MEL melanoma and in the assay on KM20L2 colon were 42 µM, 32.9 µM and 36.5 µM, respectively.

The values are drawn from PubChem BioAssay (NCI).
